Data as given in the NIST ThermoML archive (doi:10.1007/s10765-008-0535-5).
± gives the expanded uncertainty stated by the source.

Assay: wn = mass fraction of the nth substance listed
Conditions: Liquid, Pycnometric method, w2 = 0.5111

FC(F)C(F)(F)F [pentafluoroethane] + FCF
Conditions | mass density [kg/m3]
268.15 K, 3423 kPa | 1190.3 ± 1.9
269.15 K, 4259 kPa | 1190.1 ± 1.9
270.15 K, 5065 kPa | 1189.9 ± 1.9
270.15 K, 5095 kPa | 1189.9 ± 1.9
270.15 K, 5157 kPa | 1190.1 ± 1.9
271.15 K, 5903 kPa | 1189.7 ± 1.9
271.15 K, 5931 kPa | 1189.7 ± 1.9
271.15 K, 5992 kPa | 1189.9 ± 1.9
272.15 K, 6740 kPa | 1189.6 ± 1.9
272.15 K, 6767 kPa | 1189.5 ± 1.9
272.15 K, 6828 kPa | 1189.7 ± 1.9
273.15 K, 7576 kPa | 1189.4 ± 1.9
273.15 K, 7602 kPa | 1189.3 ± 1.9
273.15 K, 7662 kPa | 1189.5 ± 1.9
274.15 K, 8411 kPa | 1189.2 ± 1.9
274.15 K, 8437 kPa | 1189.2 ± 1.9
274.15 K, 8496 kPa | 1189.3 ± 1.9
275.15 K, 9245 kPa | 1189 ± 1.9
275.15 K, 9272 kPa | 1189 ± 1.9
275.15 K, 9328 kPa | 1189.2 ± 1.9
276.15 K, 10082 kPa | 1188.8 ± 1.9
276.15 K, 10107 kPa | 1188.8 ± 1.9
276.15 K, 10161 kPa | 1189 ± 1.9
277.15 K, 10917 kPa | 1188.6 ± 1.9
277.15 K, 10942 kPa | 1188.6 ± 1.9
277.15 K, 10993 kPa | 1188.8 ± 1.9
278.15 K, 11753 kPa | 1188.4 ± 1.9
278.15 K, 11776 kPa | 1188.4 ± 1.9
278.15 K, 11824 kPa | 1188.6 ± 1.9
279.15 K, 12587 kPa | 1188.2 ± 1.9
279.15 K, 12611 kPa | 1188.2 ± 1.9
279.15 K, 12657 kPa | 1188.4 ± 1.9
280.15 K, 13423 kPa | 1188.1 ± 1.9
280.15 K, 13444 kPa | 1188.1 ± 1.9
280.15 K, 13488 kPa | 1188.2 ± 1.9
281.15 K, 14258 kPa | 1187.9 ± 1.9
281.15 K, 14277 kPa | 1187.9 ± 1.9
281.15 K, 14319 kPa | 1188.1 ± 1.9
282.15 K, 15091 kPa | 1187.7 ± 1.9
282.15 K, 15110 kPa | 1187.7 ± 1.9
282.15 K, 15148 kPa | 1187.9 ± 1.9
283.15 K, 15926 kPa | 1187.5 ± 1.9
283.15 K, 15943 kPa | 1187.6 ± 1.9
283.15 K, 15978 kPa | 1187.7 ± 1.9
284.15 K, 16759 kPa | 1187.4 ± 1.9
284.15 K, 16775 kPa | 1187.4 ± 1.9
284.15 K, 16808 kPa | 1187.6 ± 1.9
285.15 K, 17592 kPa | 1187.2 ± 1.9
285.15 K, 17606 kPa | 1187.2 ± 1.9
285.15 K, 17637 kPa | 1187.4 ± 1.9
286.15 K, 18423 kPa | 1187.1 ± 1.9
286.15 K, 18437 kPa | 1187.1 ± 1.9
286.15 K, 18467 kPa | 1187.2 ± 1.9
287.15 K, 19253 kPa | 1186.9 ± 1.9
287.15 K, 19268 kPa | 1186.9 ± 1.9
287.15 K, 19297 kPa | 1187.1 ± 1.9
288.15 K, 20083 kPa | 1186.7 ± 1.9
288.15 K, 20097 kPa | 1186.8 ± 1.9
288.15 K, 20124 kPa | 1186.9 ± 1.9
289.15 K, 20914 kPa | 1186.6 ± 1.9
289.15 K, 20926 kPa | 1186.6 ± 1.9
289.15 K, 20951 kPa | 1186.8 ± 1.9
290.15 K, 21743 kPa | 1186.4 ± 1.9
290.15 K, 21755 kPa | 1186.5 ± 1.9
290.15 K, 21778 kPa | 1186.6 ± 1.9
291.15 K, 22571 kPa | 1186.3 ± 1.9
291.15 K, 22583 kPa | 1186.3 ± 1.9
291.15 K, 22607 kPa | 1186.5 ± 1.9
292.15 K, 23400 kPa | 1186.2 ± 1.9
292.15 K, 23410 kPa | 1186.2 ± 1.9
292.15 K, 23433 kPa | 1186.4 ± 1.9
293.15 K, 24226 kPa | 1186 ± 1.9
293.15 K, 24236 kPa | 1186 ± 1.9
293.15 K, 24257 kPa | 1186.2 ± 1.9
294.15 K, 25053 kPa | 1185.9 ± 1.9
294.15 K, 25062 kPa | 1185.9 ± 1.9
294.15 K, 25082 kPa | 1186.1 ± 1.9
295.15 K, 25878 kPa | 1185.7 ± 1.9
295.15 K, 25887 kPa | 1185.7 ± 1.9
295.15 K, 25903 kPa | 1185.9 ± 1.9
296.15 K, 5585 kPa | 1097.9 ± 1.8
296.15 K, 5620 kPa | 1097.9 ± 1.8
296.15 K, 5667 kPa | 1097.9 ± 1.8
296.15 K, 26704 kPa | 1185.6 ± 1.9
296.15 K, 26711 kPa | 1185.6 ± 1.9
296.15 K, 26725 kPa | 1185.8 ± 1.9
297.15 K, 6213 kPa | 1097.7 ± 1.8
297.15 K, 6246 kPa | 1097.7 ± 1.8
297.15 K, 6292 kPa | 1097.7 ± 1.8
297.15 K, 27528 kPa | 1185.5 ± 1.9
297.15 K, 27534 kPa | 1185.5 ± 1.9
297.15 K, 27546 kPa | 1185.6 ± 1.9
298.15 K, 6841 kPa | 1097.5 ± 1.8
298.15 K, 6872 kPa | 1097.5 ± 1.8
298.15 K, 6917 kPa | 1097.6 ± 1.8
298.15 K, 28352 kPa | 1185.4 ± 1.9
298.15 K, 28357 kPa | 1185.3 ± 1.9
298.15 K, 28366 kPa | 1185.5 ± 1.9
299.15 K, 7469 kPa | 1097.4 ± 1.8
299.15 K, 7499 kPa | 1097.4 ± 1.8
299.15 K, 7541 kPa | 1097.4 ± 1.8
299.15 K, 29176 kPa | 1185.2 ± 1.9
299.15 K, 29179 kPa | 1185.2 ± 1.9
299.15 K, 29186 kPa | 1185.4 ± 1.9
300.15 K, 8097 kPa | 1097.2 ± 1.8
300.15 K, 8124 kPa | 1097.2 ± 1.8
300.15 K, 8166 kPa | 1097.2 ± 1.8
300.15 K, 29998 kPa | 1185.1 ± 1.9
300.15 K, 29999 kPa | 1185.1 ± 1.9
300.15 K, 30003 kPa | 1185.2 ± 1.9
301.15 K, 8725 kPa | 1097.1 ± 1.8
301.15 K, 8750 kPa | 1097.1 ± 1.8
301.15 K, 8791 kPa | 1097.1 ± 1.8
302.15 K, 9353 kPa | 1096.9 ± 1.8
302.15 K, 9377 kPa | 1096.9 ± 1.8
302.15 K, 9417 kPa | 1096.9 ± 1.8
303.15 K, 9980 kPa | 1096.8 ± 1.8
303.15 K, 10003 kPa | 1096.8 ± 1.8
303.15 K, 10042 kPa | 1096.8 ± 1.8
304.15 K, 10607 kPa | 1096.6 ± 1.8
304.15 K, 10629 kPa | 1096.6 ± 1.8
304.15 K, 10667 kPa | 1096.7 ± 1.8
305.15 K, 11234 kPa | 1096.5 ± 1.8
305.15 K, 11256 kPa | 1096.5 ± 1.8
305.15 K, 11292 kPa | 1096.5 ± 1.8
306.15 K, 11861 kPa | 1096.4 ± 1.8
306.15 K, 11881 kPa | 1096.4 ± 1.8
306.15 K, 11917 kPa | 1096.4 ± 1.8
307.15 K, 12487 kPa | 1096.2 ± 1.8
307.15 K, 12507 kPa | 1096.2 ± 1.8
307.15 K, 12541 kPa | 1096.2 ± 1.8
308.15 K, 13114 kPa | 1096.1 ± 1.8
308.15 K, 13133 kPa | 1096.1 ± 1.8
308.15 K, 13165 kPa | 1096.1 ± 1.8
309.15 K, 13740 kPa | 1095.9 ± 1.8
309.15 K, 13758 kPa | 1095.9 ± 1.8
309.15 K, 13790 kPa | 1095.9 ± 1.8
310.15 K, 14367 kPa | 1095.8 ± 1.8
310.15 K, 14384 kPa | 1095.8 ± 1.8
310.15 K, 14414 kPa | 1095.8 ± 1.8
311.15 K, 14992 kPa | 1095.6 ± 1.8
311.15 K, 15009 kPa | 1095.7 ± 1.8
311.15 K, 15038 kPa | 1095.7 ± 1.8
312.15 K, 15618 kPa | 1095.5 ± 1.8
312.15 K, 15634 kPa | 1095.5 ± 1.8
312.15 K, 15662 kPa | 1095.5 ± 1.8
313.15 K, 16243 kPa | 1095.4 ± 1.8
313.15 K, 16259 kPa | 1095.4 ± 1.8
313.15 K, 16286 kPa | 1095.4 ± 1.8
314.15 K, 16869 kPa | 1095.2 ± 1.8
314.15 K, 16883 kPa | 1095.2 ± 1.8
314.15 K, 16910 kPa | 1095.3 ± 1.8
315.15 K, 17493 kPa | 1095.1 ± 1.8
315.15 K, 17507 kPa | 1095.1 ± 1.8
315.15 K, 17534 kPa | 1095.1 ± 1.8
316.15 K, 18118 kPa | 1095 ± 1.8
316.15 K, 18131 kPa | 1095 ± 1.8
316.15 K, 18158 kPa | 1095 ± 1.8
317.15 K, 18743 kPa | 1094.9 ± 1.8
317.15 K, 18755 kPa | 1094.9 ± 1.8
317.15 K, 18781 kPa | 1094.9 ± 1.8
318.15 K, 19367 kPa | 1094.7 ± 1.8
318.15 K, 19379 kPa | 1094.7 ± 1.8
318.15 K, 19404 kPa | 1094.8 ± 1.8
319.15 K, 19990 kPa | 1094.6 ± 1.8
319.15 K, 20003 kPa | 1094.6 ± 1.8
319.15 K, 20027 kPa | 1094.6 ± 1.8
320.15 K, 20613 kPa | 1094.5 ± 1.8
320.15 K, 20627 kPa | 1094.5 ± 1.8
320.15 K, 20649 kPa | 1094.5 ± 1.8
321.15 K, 21236 kPa | 1094.4 ± 1.8
321.15 K, 21250 kPa | 1094.4 ± 1.8
321.15 K, 21272 kPa | 1094.4 ± 1.8
322.15 K, 21858 kPa | 1094.2 ± 1.8
322.15 K, 21873 kPa | 1094.3 ± 1.8
322.15 K, 21894 kPa | 1094.3 ± 1.8
323.15 K, 22480 kPa | 1094.1 ± 1.8
323.15 K, 22495 kPa | 1094.1 ± 1.8
323.15 K, 22516 kPa | 1094.2 ± 1.8
324.15 K, 23103 kPa | 1094 ± 1.8
324.15 K, 23117 kPa | 1094 ± 1.8
324.15 K, 23137 kPa | 1094 ± 1.8
325.15 K, 23725 kPa | 1093.9 ± 1.8
325.15 K, 23738 kPa | 1093.9 ± 1.8
325.15 K, 23758 kPa | 1093.9 ± 1.8
326.15 K, 24347 kPa | 1093.8 ± 1.8
326.15 K, 24361 kPa | 1093.8 ± 1.8
326.15 K, 24379 kPa | 1093.8 ± 1.8
327.15 K, 24970 kPa | 1093.7 ± 1.8
327.15 K, 24981 kPa | 1093.7 ± 1.8
327.15 K, 25000 kPa | 1093.7 ± 1.8
328.15 K, 25590 kPa | 1093.6 ± 1.8
328.15 K, 25601 kPa | 1093.6 ± 1.8
328.15 K, 25620 kPa | 1093.6 ± 1.8
